Measured values reported in ChEMBL document CHEMBL3885881, “DrugMatrix”.

Organism: Rattus norvegicus
Test: DrugMatrix - Regimen: Daily Repeat
Format: toxicity, organism-based, Sprague-Dawley
Set-up: regimen Daily Repeat, gender Male, age 6-8 weeks
Details: in vivo, po, route oral GAVAGE, […]; for ALKALINE PHOSPHATASE / ASPARTATE AMINOTRANSFERASE / BLOOD UREA NITROGEN / CARBON DIOXIDE / CHLORIDE / CHOLESTEROL / CREATINE PHOSPHOKINASE / CREATININE / GLUCOSE / LACTATE DEHYDROGENASE / LIPASE / PHOSPHORUS / POTASSIUM / SODIUM / TOTAL BILIRUBIN / TOTAL PROTEIN / URIC ACID / ALANINE AMINOTRANSFERASE / ALBUMIN: tissue Plasma
[1] = 0 mg/kg, 72 h, dose level Control, time 3 day
[2] = 0 mg/kg, 120 h, tissue Blood, dose level Control, time 5 day
[3] = 0 mg/kg, tissue Blood, dose level Control, time 14 day
[4] = 0 mg/kg, dose level Control, time 14 day
[5] = 1200 mg/kg, 72 h, tissue Blood, dose level High, time 3 day
[6] = 1200 mg/kg, tissue Blood, dose level High, time 14 day
[7] = 1200 mg/kg, dose level High, time 14 day

Compound: CC[C@H](C)C(=O)O[C@H]1C[C@H](O)C=C2C=C[C@H](C)[C@H](CC[C@@H](O)C[C@@H](O)CC(=O)O)[C@H]21 [PRAVASTATIN]
- ALKALINE PHOSPHATASE [1]: 374.17 u/L
- ASPARTATE AMINOTRANSFERASE [1]: 83.5 u/L
- BLOOD UREA NITROGEN [1]: 14.5 mg/dL
- CARBON DIOXIDE [1]: 30 mmol/L
- CHLORIDE [1]: 100.5 MEQ/L
- CHOLESTEROL [1]: 71.33 mg/dL
- CREATINE PHOSPHOKINASE [1]: 268.33 u/L
- CREATININE [1]: 0.16 mg/dL
- GLUCOSE [1]: 170.5 mg/dL
- LACTATE DEHYDROGENASE [1]: 81.17 u/L
- LIPASE [1]: 16.67 u/L
- PHOSPHORUS [1]: 10.07 mg/dL
- POTASSIUM [1]: 5.03 MEQ/L
- SODIUM [1]: 142.92 MEQ/L
- TOTAL BILIRUBIN [1]: 0.17 mg/dL
- TOTAL PROTEIN [1]: 5.63 G/DL
- URIC ACID [1]: 0.5 mg/dL
- ABSOLUTE SEGMENTED NEUTROPHIL [2]: 646.83 CELLS/uL
- NUCLEATED RED BLOOD CELLS [2]: 0.17 /100WBC
- ABSOLUTE BASOPHIL [3]: 100 cells/µL
- ABSOLUTE EOSINOPHIL [3]: 57.5 cells/µL
- ABSOLUTE LYMPHOCYTE [3]: 11800 cells/µL
- ABSOLUTE MONOCYTE [3]: 290 cells/µL
- BASOPHIL [3]: 0.47%
- EOSINOPHIL [3]: 0.41%
- ERYTHROCYTE COUNT [3]: 7.31 x10E6/uL
- HEMATOCRIT [3]: 46.8%
- HEMOGLOBIN [3]: 14.69 G/DL
- LEUKOCYTE COUNT [3]: 14.73 x10E3/uL
- LYMPHOCYTE [3]: 80.94%
- MEAN CORPUSCULAR HEMOGLOBIN [3]: 20.09 pg
- MEAN CORPUSCULAR HEMOGLOBIN CONCENTRATION [3]: 31.41 G/DL
- MEAN CORPUSCULAR VOLUME [3]: 64.03 fL
- MONOCYTE [3]: 1.9%
- NEUTROPHIL [3]: 15.1%
- PLATELET COUNT [3]: 1273.62 x10E3/uL
- ALANINE AMINOTRANSFERASE [4]: 56.75 u/L
- ALBUMIN [4]: 3.84 G/DL
- ALKALINE PHOSPHATASE [4]: 530.25 u/L
- ASPARTATE AMINOTRANSFERASE [4]: 78.88 u/L
- BLOOD UREA NITROGEN [4]: 12.25 mg/dL
- CARBON DIOXIDE [4]: 41.38 mmol/L
- CHLORIDE [4]: 102.38 MEQ/L
- CHOLESTEROL [4]: 67.88 mg/dL
- CREATINE PHOSPHOKINASE [4]: 297.25 u/L
- CREATININE [4]: 0.61 mg/dL
- GLUCOSE [4]: 161.88 mg/dL
- LACTATE DEHYDROGENASE [4]: 161.38 u/L
- LIPASE [4]: 16.75 u/L
- PHOSPHORUS [4]: 10.13 mg/dL
- POTASSIUM [4]: 6.73 MEQ/L
- SODIUM [4]: 149 MEQ/L
- TOTAL BILIRUBIN [4]: 0.29 mg/dL
- TOTAL PROTEIN [4]: 6.73 G/DL
- URIC ACID [4]: 1.14 mg/dL
- ABSOLUTE BASOPHIL [5]: 0 CELLS/uL
- BASOPHIL [5]: 0%
- NUCLEATED RED BLOOD CELLS (1200 mg/kg, 120 h, tissue Blood, dose level High, time 5 day): 0 /100WBC
- ABSOLUTE BASOPHIL [6]: 66.7 cells/µL
- ABSOLUTE EOSINOPHIL [6]: 80 cells/µL
- ABSOLUTE LYMPHOCYTE [6]: 4950 cells/µL
- ABSOLUTE MONOCYTE [6]: 1.18 CELLS/uL
- BASOPHIL [6]: 0.33%
- EOSINOPHIL [6]: 0.5%
- ERYTHROCYTE COUNT [6]: 8.11 x10E6/uL
- HEMATOCRIT [6]: 47.4%
- HEMOGLOBIN [6]: 15.87 G/DL
- LEUKOCYTE COUNT [6]: 17.97 x10E3/uL
- LYMPHOCYTE [6]: 29.8%
- MEAN CORPUSCULAR HEMOGLOBIN [6]: 19.53 pg
- MEAN CORPUSCULAR HEMOGLOBIN CONCENTRATION [6]: 33.43 G/DL
- MEAN CORPUSCULAR VOLUME [6]: 58.47 fL
- MONOCYTE [6]: 6.57%
- NEUTROPHIL [6]: 58.53%
- PLATELET COUNT [6]: 1135 x10E3/uL
- ALANINE AMINOTRANSFERASE [7]: 669.33 u/L
- ALBUMIN [7]: 3.17 G/DL
- ALKALINE PHOSPHATASE [7]: 461 u/L
- ASPARTATE AMINOTRANSFERASE [7]: 5256.67 u/L
- BLOOD UREA NITROGEN [7]: 60.67 mg/dL
- CARBON DIOXIDE [7]: 33.33 mmol/L
- CHLORIDE [7]: 95.67 MEQ/L
- CHOLESTEROL [7]: 47 mg/dL
- CREATINE PHOSPHOKINASE [7]: 10626.67 u/L
- CREATININE [7]: 0.97 mg/dL
- GLUCOSE [7]: 113.67 mg/dL
- LACTATE DEHYDROGENASE [7]: 1229.67 u/L
- LIPASE [7]: 228.5 u/L
- PHOSPHORUS [7]: 11.03 mg/dL
- POTASSIUM [7]: 6.93 MEQ/L
- SODIUM [7]: 141 MEQ/L
- TOTAL BILIRUBIN [7]: 0.3 mg/dL
- TOTAL PROTEIN [7]: 5.53 G/DL
- URIC ACID [7]: 1.53 mg/dL
